Measurements published in patent US20140350273A1, “PEDIATRIC USES OF CABAZITAXEL” (AVENTIS PHARMA S.A., priority 2012, published 2014).
Like-named read-outs stand apart in the source and are kept apart here.

Tested on: human osteosarcoma DM113
Type: in vivo
Conditions: for Tumor Volume Data (Day 28) Median / ΔT/ΔC %: day 28; for MTTE / T-C: volume endpoint 1600 mm^3
Method: The resultant solution contains 10 mg/mL of cabazitaxel. Stock solution of cabazitaxel was then diluted in 0.9% sodium chloride.
This efficacy may be quantified, for example, as changes in tumor volume for each treated (T) and control (C) group, which are calculated for each animal and each day by subtracting the tumor volume on the day of first treatment (staging day) from the tumor volume on the specified observation day. This allows calculating the tumor growth inhibition: ΔT/ΔC=(median delta T/median delta C)×100. Individual tumor volume changes from baseline are thereafter analyzed by a non-parametric two-way ANOVA-TYPE (with factors: group and repeated days) followed by a post-hoc contrasts analysis, with Bonferroni-Holm adjustment for multiplicity, comparing all treated groups to the control group. […] A probability less than 5% (p<0.05) was considered as significant.
Based on the National Cancer Institute (NCl) standards, a ΔT/ΔC≦40% is the minimal level required to declare activity.
This efficacy may also be quantified by the number of tumor regressions observed after therapy. Individual mice reporting a tumor volume ≦50% of the Day 0 measurement for two consecutive measurements over a seven day period were considered partial responders (PR). Individual mice lacking palpable tumors (<4×4 mm^2 for two consecutive measurements over a seven day period) were classified as complete responders (CR); a CR that persisted until study completion was considered a tumor-free survivor (TFS).
Efficacy could also be determined at study completion, using tumor growth delay (T-C) in days, which is calculated using the median time to endpoint (MTTE) value for each treatment (T) group versus control (C). A Log Rank multiple comparison test with Bonferroni-Holm adjustment for multiplicity was applied on individual TTE to compare the treated groups to the control group.
The animals subjected to the experiment are subcutaneously grafted unilaterally with approximately 30 mg of a tumor fragment from low passage pediatric patient-derived tumor xenografts. The animals are implanted with a human patient-derived pediatric tumor xenografted in immuno-compromised mice (Harlan; nu/nu). Several days post tumor implantation, mice are randomized according to their tumor burden to the different groups of treatments and controls. The agents are dosed intravenously at 5.8, 9.3, 15 or 24.2 mg/kg every 4 days for a total of 3 doses (q4d×3) to mice bearing a tumor burden at start of therapy (day 0) ranged from 125 to 250 mm^3.
Beginning Day 0, animals were observed daily and weighed twice weekly using a digital scale; data including individual and mean gram weights (Mean We±SD), mean percent weight change versus Day 0 were recorded for each group. Animal deaths were recorded daily and designated as drug-related (D), technical (T), tumor related (B), or unknown (U) based on weight loss and gross observation; single agent or combination groups reporting a mean >20% for a period of 7 days and/or >10% mortality were considered above the maximum tolerated dose (MTD) for that treatment on the evaluated regimen.
The selected tumor model, DM113, was a low passage patient-derived tumor xenograft derived from an osteosarcoma taken from the lung of a patient.
The following end points were used: • Toxicity was declared at dosages inducing ≧20% body weight loss or ≧10% drug death; • Antitumor efficacy was determined by calculating the ΔT/ΔC value in percent on day 28 post treatment initiation, according to the above mentioned formula; • Individual tumor volume changes from baseline were analyzed by a non-parametric two-way ANOVA-TYPE (with factors: group and repeated day from 3 to 28) followed by a post-hoc contrasts analysis, with Bonferroni-Holm adjustment for multiplicity, comparing all treated groups to the control group on day 28. […] The volume endpoint for T-C calculations was chosen to be 1600 mm^3.

For `CO[C@H]1C(=O)[C@]2(C)[C@@H](OC)C[C@H]3OC[C@@]3(OC(C)=O)[C@H]2[C@H](OC(=O)c2ccccc2)[C@]2(O)C[C@H](OC(=O)[C@H](O)[C@@H](NC(=O)OC(C)(C)C)c3ccccc3)C(C)=C1C2(C)C` [Cabazitaxel, 4α-acetoxy-2α-benzoyloxy-5β,20-epoxy-1β-hydroxy-7β,10β-dimethoxy-9-oxo-11-taxen-13α-yl (2R,3S)-3-tert-butoxycarbonyl-amino-2-hydroxy-3-phenylpropionate], the “#CR” value (5.8 mg/kg i.v./q4dx3) was 0/0/0, the “#PR” value (5.8 mg/kg i.v./q4dx3) was 0/0/0 and the “#TFS” value (5.8 mg/kg i.v./q4dx3) was 0/0/0. For the same compound, the “Drug Deaths Total” value (5.8 mg/kg i.v./q4dx3) was 0, the “Tumor Volume Data (Day 28) Median” value (5.8 mg/kg i.v./q4dx3) was 512.5 mm^3 and the ΔT/ΔC % (5.8 mg/kg i.v./q4dx3) was 29.4%. For the same compound, the MTTE (5.8 mg/kg i.v./q4dx3) was 47 days, the T-C (5.8 mg/kg i.v./q4dx3) was 16 days and the “tumor volume changes from baseline, Median +/− MAD” value (“tumor volume changes from baseline” for short) (5.8 mg/kg, DAY 3) was 58 +/− 21.5. For the same compound, the “tumor volume changes from baseline” value (5.8 mg/kg, DAY 8) was 63.5 +/− 37, the “tumor volume changes from baseline” value (5.8 mg/kg, DAY 11) was 63.5 +/− 21.5 and the “tumor volume changes from baseline” value (5.8 mg/kg, DAY 14) was 95 +/− 41.5. The “tumor volume changes from baseline” value (5.8 mg/kg, DAY 17) was 95 +/− 59, the “tumor volume changes from baseline” value (5.8 mg/kg, DAY 21) was 158.5 +/− 39.5 and the “tumor volume changes from baseline” value (5.8 mg/kg, DAY 24) was 234 +/− 83.5. The “tumor volume changes from baseline” value (5.8 mg/kg, DAY 28) was 334.5 +/− 96, the “tumor volume changes from baseline” value (5.8 mg/kg, DAY 31) was 459.5 +/− 123 and the “tumor volume changes from baseline” value (5.8 mg/kg, DAY 35) was 579.5 +/− 228. The “tumor volume changes from baseline” value (5.8 mg/kg, DAY 38) was 834.5 +/− 245, the “tumor volume changes from baseline” value (5.8 mg/kg, DAY 42) was 1097 +/− 248 and the “tumor volume changes from baseline” value (5.8 mg/kg, DAY 46) was 1548.5 +/− 438.5. The “#CR” value (9.3 mg/kg i.v./q4dx3) was 0/0/0, the “#PR” value (9.3 mg/kg i.v./q4dx3) was 0/0/0 and the “#TFS” value (9.3 mg/kg i.v./q4dx3) was 0/0/0. The “Drug Deaths Total” value (9.3 mg/kg i.v./q4dx3) was 0, the “Weight Nadir %” value (9.3 mg/kg i.v./q4dx3) was −3% and the “Weight Nadir Day” value (9.3 mg/kg i.v./q4dx3) was 3. For the same compound, the “Tumor Volume Data (Day 28) Median” value (9.3 mg/kg i.v./q4dx3) was 204 mm^3, the ΔT/ΔC % (9.3 mg/kg i.v./q4dx3) was 1.8% and the MTTE (9.3 mg/kg i.v./q4dx3) was >59 days. The T-C (9.3 mg/kg i.v./q4dx3) was >28 days, the “tumor volume changes from baseline” value (9.3 mg/kg, DAY 3) was 29.5 +/− 27 and the “tumor volume changes from baseline” value (9.3 mg/kg, DAY 8) was 29.5 +/− 29.5. For the same compound, the “tumor volume changes from baseline” value (9.3 mg/kg, DAY 11) was 29.5 +/− 29.5, the “tumor volume changes from baseline” value (9.3 mg/kg, DAY 14) was 9 +/− 9 and the “tumor volume changes from baseline” value (9.3 mg/kg, DAY 17) was 0 +/− 0. The “tumor volume changes from baseline” value (9.3 mg/kg, DAY 21) was 0 +/− 9, the “tumor volume changes from baseline” value (9.3 mg/kg, DAY 24) was 0 +/− 31 and the “tumor volume changes from baseline” value (9.3 mg/kg, DAY 28) was 20 +/− 39.5. The “tumor volume changes from baseline” value (9.3 mg/kg, DAY 31) was 69 +/− 69, the “tumor volume changes from baseline” value (9.3 mg/kg, DAY 35) was 87.5 +/− 70.5 and the “tumor volume changes from baseline” value (9.3 mg/kg, DAY 38) was 182 +/− 155.5. The “tumor volume changes from baseline” value (9.3 mg/kg, DAY 42) was 311 +/− 248, the “tumor volume changes from baseline” value (9.3 mg/kg, DAY 46) was 576 +/− 317.5 and the “#CR” value (15 mg/kg i.v./q4dx3) was 0. The “#PR” value (15 mg/kg i.v./q4dx3) was 4, the “#TFS” value (15 mg/kg i.v./q4dx3) was 0 and the “Drug Deaths Total” value (15 mg/kg i.v./q4dx3) was 0. The “Weight Nadir %” value (15 mg/kg i.v./q4dx3) was −9%, the “Weight Nadir Day” value (15 mg/kg i.v./q4dx3) was 14 and the “Tumor Volume Data (Day 28) Median” value (15 mg/kg i.v./q4dx3) was 131 mm^3. The ΔT/ΔC % (15 mg/kg i.v./q4dx3) was −4.4%, the MTTE (15 mg/kg i.v./q4dx3) was >59 days and the T-C (15 mg/kg i.v./q4dx3) was >28 days. For the same compound, the “numbers of PR” value (15 mg/kg q4d×3 IV) was 4/10, the “tumor volume changes from baseline” value (15 mg/kg, DAY 3) was 13 +/− 13 and the “tumor volume changes from baseline” value (15 mg/kg, DAY 8) was 0 +/− 0. For the same compound, the “tumor volume changes from baseline” value (15 mg/kg, DAY 11) was −23.5 +/− 23.5, the “tumor volume changes from baseline” value (15 mg/kg, DAY 14) was −40.5 +/− 30 and the “tumor volume changes from baseline” value (15 mg/kg, DAY 17) was −40.5 +/− 30. The “tumor volume changes from baseline” value (15 mg/kg, DAY 21) was −40.5 +/− 30, the “tumor volume changes from baseline” value (15 mg/kg, DAY 24) was −50 +/− 36.5 and the “tumor volume changes from baseline” value (15 mg/kg, DAY 28) was −50 +/− 36.5. For the same compound, the “tumor volume changes from baseline” value (15 mg/kg, DAY 31) was −53 +/− 36.5, the “tumor volume changes from baseline” value (15 mg/kg, DAY 35) was −59.5 +/− 29 and the “tumor volume changes from baseline” value (15 mg/kg, DAY 38) was −59.5 +/− 39.5. The “tumor volume changes from baseline” value (15 mg/kg, DAY 42) was −59.5 +/− 39.5, the “tumor volume changes from baseline” value (15 mg/kg, DAY 46) was −59.5 +/− 42.5 and the “#CR” value (24.2 mg/kg i.v./q4dx3) was 0. For the same compound, the “#PR” value (24.2 mg/kg i.v./q4dx3) was 5, the “#TFS” value (24.2 mg/kg i.v./q4dx3) was 0 and the “Drug Deaths Total” value (24.2 mg/kg i.v./q4dx3) was 0. The “Weight Nadir %” value (24.2 mg/kg i.v./q4dx3) was −11%, the “Weight Nadir Day” value (24.2 mg/kg i.v./q4dx3) was 11 and the “Tumor Volume Data (Day 28) Median” value (24.2 mg/kg i.v./q4dx3) was 112 mm^3. The ΔT/ΔC % (24.2 mg/kg i.v./q4dx3) was −3.6%, the MTTE (24.2 mg/kg i.v./q4dx3) was >59 days and the T-C (24.2 mg/kg i.v./q4dx3) was >28 days. For the same compound, the “numbers of PR” value (24.2 mg/kg q4d×3 IV) was 5/10, the “tumor volume changes from baseline” value (24.2 mg/kg, DAY 3) was 9.5 +/− 9.5 and the “tumor volume changes from baseline” value (24.2 mg/kg, DAY 8) was 0 +/− 26.5. The “tumor volume changes from baseline” value (24.2 mg/kg, DAY 11) was −40.5 +/− 34, the “tumor volume changes from baseline” value (24.2 mg/kg, DAY 14) was −43.5 +/− 28.5 and the “tumor volume changes from baseline” value (24.2 mg/kg, DAY 17) was −40.5 +/− 24.5. For the same compound, the “tumor volume changes from baseline” value (24.2 mg/kg, DAY 21) was −40.5 +/− 24.5, the “tumor volume changes from baseline” value (24.2 mg/kg, DAY 24) was −40.5 +/− 40.5 and the “tumor volume changes from baseline” value (24.2 mg/kg, DAY 28) was −40.5 +/− 40.5. For the same compound, the “tumor volume changes from baseline” value (24.2 mg/kg, DAY 31) was −40.5 +/− 34, the “tumor volume changes from baseline” value (24.2 mg/kg, DAY 35) was −51 +/− 41.5 and the “tumor volume changes from baseline” value (24.2 mg/kg, DAY 38) was −51 +/− 41.5. The “tumor volume changes from baseline” value (24.2 mg/kg, DAY 42) was −51 +/− 41.5, the “tumor volume changes from baseline” value (24.2 mg/kg, DAY 46) was −51 +/− 41.5 and the “antitumor activity compared with docetaxel” value (conclusion of example 5, 9.3, 15 and 24.2 mg/kg dose levels) was “higher efficacy than docetaxel”.
